# Laboratory results from US11117892B2, “Pyrrolo-pyridine derivative compound, method for preparing same, and pharmaceutical composition containing same as active ingredient for prevention or treatment of protein kinase-related diseases” (DAEGU-GYEONGBUK MEDICAL INNOVATION FOUNDATION, priority 2017, dated 2021).
# Assays:
# Test in all cases: scanMAX Kinase assay panel
# Format in all cases: binding
# [1] = target: RSK1(Kin.Dom.1-N-terminal) (Homo sapiens (Human), UniProt Q15418); settings: read-out: % control
# Outline: (§1)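 Panel: scanMAX. Metric: % control. The 100% anchor is DMSO and the 0% anchor is the positive control.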
# PIP5K1C = PIP5K1C (Homo sapiens (Human), UniProt O60331); settings: read-out: % control
# Outline: as §1
# EPHB2 = EPHB2 (Homo sapiens (Human), UniProt P29323); settings: read-out: % control
# Outline: as §1
# WNK4 = WNK4 (Homo sapiens (Human), UniProt Q96J92); settings: read-out: % control
# Outline: as §1
# RIOK3 = RIOK3 (Homo sapiens (Human), UniProt O14730); settings: read-out: % control
# Outline: as §1
# NEK10 = NEK10 (Homo sapiens (Human), UniProt Q6ZWH5); settings: read-out: % control
# Outline: as §1
# WNK1 = WNK1 (Homo sapiens (Human), UniProt Q9H4A3); settings: read-out: % control
# Outline: as §1
# OSR1 = OSR1 (Homo sapiens (Human), UniProt O95747); settings: read-out: % control
# Outline: as §1
# FER = FER (Homo sapiens (Human), UniProt P16591); settings: read-out: % control
# Outline: as §1
# PIK3CA(M1043I) = PIK3CA(M1043I) (Homo sapiens (Human), UniProt P42336, M1043I); settings: read-out: % control
# Outline: as §1
# FRK = FRK (Homo sapiens (Human), UniProt P42685); settings: read-out: % control
# Sequence of FRK (P42685 whole entry): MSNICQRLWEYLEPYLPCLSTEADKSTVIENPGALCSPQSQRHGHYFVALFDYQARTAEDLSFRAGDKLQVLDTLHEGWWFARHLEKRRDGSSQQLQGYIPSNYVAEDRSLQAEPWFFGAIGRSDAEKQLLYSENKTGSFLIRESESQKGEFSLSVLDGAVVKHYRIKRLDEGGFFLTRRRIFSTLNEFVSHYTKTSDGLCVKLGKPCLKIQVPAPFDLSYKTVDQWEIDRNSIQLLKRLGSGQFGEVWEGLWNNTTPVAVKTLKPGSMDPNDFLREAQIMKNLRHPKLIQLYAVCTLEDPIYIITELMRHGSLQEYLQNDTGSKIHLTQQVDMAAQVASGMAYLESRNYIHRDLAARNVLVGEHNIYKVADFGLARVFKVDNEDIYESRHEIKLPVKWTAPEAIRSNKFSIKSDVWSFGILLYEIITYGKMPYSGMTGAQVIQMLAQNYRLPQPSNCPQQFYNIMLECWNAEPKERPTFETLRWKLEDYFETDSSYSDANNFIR
# Outline: as §1
# PIK3CA(Q546K) = PIK3CA(Q546K) (Homo sapiens (Human), UniProt P42336, Q546K); settings: read-out: % control
# Outline: as §1
# AXL = AXL (Homo sapiens (Human), UniProt P30530); settings: read-out: % control
# Outline: as §1
# FLT3(ITD, D835V) = settings: 1 uM
# Outline: as §1
# SNARK = SNARK (Homo sapiens (Human), UniProt Q9H093); settings: read-out: % control
# Outline: as §1
# PCTK3 = PCTK3 (Homo sapiens (Human), UniProt Q07002); settings: read-out: % control
# Sequence of PCTK3 (Q07002 whole entry): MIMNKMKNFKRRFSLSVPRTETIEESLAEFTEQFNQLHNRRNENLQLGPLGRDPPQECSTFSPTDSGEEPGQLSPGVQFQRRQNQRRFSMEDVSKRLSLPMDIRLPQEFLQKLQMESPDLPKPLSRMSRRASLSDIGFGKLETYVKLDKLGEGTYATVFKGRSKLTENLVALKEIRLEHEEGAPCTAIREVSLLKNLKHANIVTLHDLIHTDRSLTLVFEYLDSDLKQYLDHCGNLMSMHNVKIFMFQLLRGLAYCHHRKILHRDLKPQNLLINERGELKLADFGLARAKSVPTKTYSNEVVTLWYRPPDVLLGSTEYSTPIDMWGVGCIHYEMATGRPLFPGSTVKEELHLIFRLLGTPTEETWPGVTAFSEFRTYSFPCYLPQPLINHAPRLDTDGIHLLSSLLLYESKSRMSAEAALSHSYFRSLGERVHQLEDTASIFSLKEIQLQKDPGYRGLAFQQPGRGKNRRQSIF
# Outline: as §1
# RET(V804M) = RET(V804M) (Homo sapiens (Human), UniProt P07949, V804M); settings: read-out: % control
# Outline: as §1
# TAOK1 = TAOK1 (Homo sapiens (Human), UniProt Q7L7X3); settings: read-out: % control
# Outline: as §1
# LCK = LCK (Homo sapiens (Human), UniProt P06239); settings: read-out: % control
# Outline: as §1
# AURKA = AURKA (Homo sapiens (Human), UniProt O14965); settings: read-out: % control
# Sequence of AURKA (O14965 whole entry): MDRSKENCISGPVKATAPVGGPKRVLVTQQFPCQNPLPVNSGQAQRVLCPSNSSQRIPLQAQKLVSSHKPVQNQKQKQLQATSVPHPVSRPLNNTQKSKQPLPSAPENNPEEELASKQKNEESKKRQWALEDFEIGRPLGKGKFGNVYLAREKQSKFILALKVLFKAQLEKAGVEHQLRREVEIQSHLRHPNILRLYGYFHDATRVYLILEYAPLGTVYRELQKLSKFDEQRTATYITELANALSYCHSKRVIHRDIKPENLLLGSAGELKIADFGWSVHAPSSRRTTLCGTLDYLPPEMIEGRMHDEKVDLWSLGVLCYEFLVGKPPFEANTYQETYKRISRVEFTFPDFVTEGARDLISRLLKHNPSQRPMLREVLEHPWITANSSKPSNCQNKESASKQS
# Outline: as §1
# PAK3 = PAK3 (Homo sapiens (Human), UniProt O75914); settings: read-out: % control
# Outline: as §1
# PIK3CA(H1047Y) = PIK3CA(H1047Y) (Homo sapiens (Human), UniProt P42336, H1047Y); settings: read-out: % control
# Sequence of PIK3CA(H1047Y) (P42336 whole entry H1047Y): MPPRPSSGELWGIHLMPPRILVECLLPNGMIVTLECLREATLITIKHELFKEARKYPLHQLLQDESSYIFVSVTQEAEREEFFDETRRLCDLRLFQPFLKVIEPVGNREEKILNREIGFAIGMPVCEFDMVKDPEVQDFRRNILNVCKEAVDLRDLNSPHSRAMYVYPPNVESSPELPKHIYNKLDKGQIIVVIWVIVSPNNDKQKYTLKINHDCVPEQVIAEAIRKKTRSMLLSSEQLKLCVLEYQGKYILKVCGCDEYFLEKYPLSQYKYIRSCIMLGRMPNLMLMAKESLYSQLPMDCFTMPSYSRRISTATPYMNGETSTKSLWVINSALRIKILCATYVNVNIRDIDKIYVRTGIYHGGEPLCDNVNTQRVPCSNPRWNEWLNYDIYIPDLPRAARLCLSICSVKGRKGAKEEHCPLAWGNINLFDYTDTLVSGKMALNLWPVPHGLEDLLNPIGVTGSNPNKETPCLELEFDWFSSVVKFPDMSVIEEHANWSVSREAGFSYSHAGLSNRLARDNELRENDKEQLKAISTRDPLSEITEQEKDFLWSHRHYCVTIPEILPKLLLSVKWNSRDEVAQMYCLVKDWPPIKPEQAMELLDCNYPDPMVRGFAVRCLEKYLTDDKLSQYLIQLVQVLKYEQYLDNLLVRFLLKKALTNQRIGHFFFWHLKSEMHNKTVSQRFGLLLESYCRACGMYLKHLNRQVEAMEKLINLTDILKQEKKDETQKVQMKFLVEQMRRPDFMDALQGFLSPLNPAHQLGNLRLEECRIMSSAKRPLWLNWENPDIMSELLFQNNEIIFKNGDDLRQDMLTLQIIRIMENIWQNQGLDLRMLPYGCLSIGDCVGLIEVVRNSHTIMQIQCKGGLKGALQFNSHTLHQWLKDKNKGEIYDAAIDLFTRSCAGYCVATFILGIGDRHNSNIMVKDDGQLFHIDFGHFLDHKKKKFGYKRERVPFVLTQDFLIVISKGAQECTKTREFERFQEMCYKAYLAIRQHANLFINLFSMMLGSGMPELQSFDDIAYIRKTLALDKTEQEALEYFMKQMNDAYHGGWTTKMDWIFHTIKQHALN
# Outline: as §1
# CDK2 = CDK2 (Homo sapiens (Human), UniProt P24941); settings: read-out: % control
# Outline: as §1
# PIK3CD = PIK3CD (Homo sapiens (Human), UniProt O00329); settings: read-out: % control
# Outline: as §1
# TAOK3 = TAOK3 (Homo sapiens (Human), UniProt Q9H2K8); settings: read-out: % control
# Outline: as §1
# ARK5 = ARK5 (Homo sapiens (Human), UniProt O60285); settings: read-out: % control
# Sequence of ARK5 (O60285 whole entry): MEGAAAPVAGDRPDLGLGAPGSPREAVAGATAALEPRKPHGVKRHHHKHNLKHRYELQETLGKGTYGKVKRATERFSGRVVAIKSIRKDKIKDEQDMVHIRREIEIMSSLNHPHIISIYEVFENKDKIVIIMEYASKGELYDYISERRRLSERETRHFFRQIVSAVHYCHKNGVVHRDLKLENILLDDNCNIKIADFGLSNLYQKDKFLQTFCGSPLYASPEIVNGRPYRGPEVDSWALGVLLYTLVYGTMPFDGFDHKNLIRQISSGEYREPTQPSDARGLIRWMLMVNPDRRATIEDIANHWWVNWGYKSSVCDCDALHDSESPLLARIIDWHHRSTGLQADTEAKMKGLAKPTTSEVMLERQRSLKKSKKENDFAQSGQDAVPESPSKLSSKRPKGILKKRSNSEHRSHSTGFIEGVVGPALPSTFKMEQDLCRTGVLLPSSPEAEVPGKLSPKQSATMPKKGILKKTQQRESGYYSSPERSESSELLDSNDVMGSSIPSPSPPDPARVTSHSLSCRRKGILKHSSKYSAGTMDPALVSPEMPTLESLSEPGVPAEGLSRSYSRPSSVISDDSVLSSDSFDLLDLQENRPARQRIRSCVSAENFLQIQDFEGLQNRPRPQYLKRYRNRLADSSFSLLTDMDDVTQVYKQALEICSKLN
# Outline: as §1
# DRAK1 = DRAK1 (Homo sapiens (Human), UniProt Q9UEE5); settings: read-out: % control
# Sequence of DRAK1 (Q9UEE5 whole entry): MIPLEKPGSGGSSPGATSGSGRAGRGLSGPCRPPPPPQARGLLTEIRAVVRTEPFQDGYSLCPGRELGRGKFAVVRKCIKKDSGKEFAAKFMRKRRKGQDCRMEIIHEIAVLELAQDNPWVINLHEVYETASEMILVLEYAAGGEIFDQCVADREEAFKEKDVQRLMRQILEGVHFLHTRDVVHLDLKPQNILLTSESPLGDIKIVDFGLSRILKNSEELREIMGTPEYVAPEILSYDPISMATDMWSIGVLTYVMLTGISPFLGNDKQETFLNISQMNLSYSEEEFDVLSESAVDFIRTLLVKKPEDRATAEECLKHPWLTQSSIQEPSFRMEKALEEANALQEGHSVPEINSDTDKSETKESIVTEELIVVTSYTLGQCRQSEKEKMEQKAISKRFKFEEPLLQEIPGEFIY
# Outline: as §1
# ACVRL1 = ACVRL1 (Homo sapiens (Human), UniProt P37023); settings: read-out: % control
# Sequence of ACVRL1 (P37023 22-503): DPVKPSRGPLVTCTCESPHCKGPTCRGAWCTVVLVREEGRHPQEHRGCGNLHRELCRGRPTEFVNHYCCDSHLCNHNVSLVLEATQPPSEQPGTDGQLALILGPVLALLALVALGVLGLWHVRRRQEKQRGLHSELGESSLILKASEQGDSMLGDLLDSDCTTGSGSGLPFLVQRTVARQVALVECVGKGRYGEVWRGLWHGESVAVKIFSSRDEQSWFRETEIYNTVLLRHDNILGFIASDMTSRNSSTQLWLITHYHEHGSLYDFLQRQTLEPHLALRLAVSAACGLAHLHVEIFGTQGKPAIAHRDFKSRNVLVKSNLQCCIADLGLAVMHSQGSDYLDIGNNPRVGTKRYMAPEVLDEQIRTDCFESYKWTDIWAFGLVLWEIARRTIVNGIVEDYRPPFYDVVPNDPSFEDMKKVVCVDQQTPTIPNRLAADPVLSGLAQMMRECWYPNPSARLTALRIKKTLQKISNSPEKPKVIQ
# Outline: as §1
# AMPK-alpha1 = AMPK-alpha1 (Homo sapiens (Human), UniProt Q13131); settings: read-out: % control
# Outline: as §1
# BMPR1A = BMPR1A (Homo sapiens (Human), UniProt P36894); settings: read-out: % control
# Outline: as §1
# MEK2 = MEK2 (Homo sapiens (Human), UniProt P36507); settings: read-out: % control
# Sequence of MEK2 (P36507 whole entry): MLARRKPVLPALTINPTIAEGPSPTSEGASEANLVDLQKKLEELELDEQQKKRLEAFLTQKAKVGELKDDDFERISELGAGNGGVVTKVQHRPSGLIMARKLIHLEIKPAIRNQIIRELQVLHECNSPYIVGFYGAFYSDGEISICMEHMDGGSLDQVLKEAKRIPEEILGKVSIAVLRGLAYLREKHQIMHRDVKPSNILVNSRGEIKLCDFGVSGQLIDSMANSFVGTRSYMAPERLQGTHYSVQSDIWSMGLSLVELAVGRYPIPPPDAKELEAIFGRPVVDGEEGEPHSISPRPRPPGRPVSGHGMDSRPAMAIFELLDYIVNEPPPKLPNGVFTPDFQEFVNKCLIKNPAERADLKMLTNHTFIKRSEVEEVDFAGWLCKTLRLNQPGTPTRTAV
# Outline: as §1
# MRCKA = MRCKA (Homo sapiens (Human), UniProt Q5VT25); settings: read-out: % control
# Outline: as §1
# ERBB3 = ERBB3 (Homo sapiens (Human), UniProt P21860); settings: read-out: % control
# Outline: as §1
# KIT(D816V) = KIT(D816V) (Homo sapiens (Human), UniProt P10721, D816V); settings: read-out: % control
# Outline: as §1
# MYLK2 = MYLK2 (Homo sapiens (Human), UniProt Q9H1R3); settings: read-out: % control
# Sequence of MYLK2 (Q9H1R3 whole entry): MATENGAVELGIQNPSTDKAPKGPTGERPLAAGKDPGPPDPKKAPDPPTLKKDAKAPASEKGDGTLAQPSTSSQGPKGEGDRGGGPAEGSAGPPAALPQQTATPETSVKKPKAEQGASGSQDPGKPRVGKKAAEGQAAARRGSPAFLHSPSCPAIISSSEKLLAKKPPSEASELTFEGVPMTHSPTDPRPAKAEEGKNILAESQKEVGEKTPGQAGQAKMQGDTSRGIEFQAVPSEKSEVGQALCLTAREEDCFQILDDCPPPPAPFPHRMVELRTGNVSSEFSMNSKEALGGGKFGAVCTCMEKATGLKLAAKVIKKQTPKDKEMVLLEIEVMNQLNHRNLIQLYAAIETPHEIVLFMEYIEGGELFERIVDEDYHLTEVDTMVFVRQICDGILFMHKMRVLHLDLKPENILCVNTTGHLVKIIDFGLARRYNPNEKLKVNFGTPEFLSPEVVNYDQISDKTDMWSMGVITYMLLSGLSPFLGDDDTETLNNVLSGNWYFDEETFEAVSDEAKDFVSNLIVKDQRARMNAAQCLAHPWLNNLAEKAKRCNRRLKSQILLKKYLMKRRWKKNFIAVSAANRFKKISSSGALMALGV
# Outline: as §1
# FLT1 = FLT1 (Homo sapiens (Human), UniProt P17948); settings: read-out: % control
# Outline: as §1
# EPHA6 = EPHA6 (Homo sapiens (Human), UniProt Q9UF33); settings: read-out: % control
# Outline: as §1
# MRCKB = MRCKB (Homo sapiens (Human), UniProt Q9Y5S2); settings: read-out: % control
# Outline: as §1
# DCAMKL1 = DCAMKL1 (Homo sapiens (Human), UniProt O15075); settings: read-out: % control
# Outline: as §1
Compound,remaining binding at 1 µM [1] [%],remaining binding at 1 µM (PIP5K1C) [%],remaining binding at 1 µM (EPHB2) [%],remaining binding at 1 µM (WNK4) [%],remaining binding at 1 µM (RIOK3) [%],remaining binding at 1 µM (NEK10) [%],remaining binding at 1 µM (WNK1) [%],remaining binding at 1 µM (OSR1) [%],remaining binding at 1 µM (FER) [%],remaining binding at 1 µM (PIK3CA(M1043I)) [%],remaining binding at 1 µM (FRK) [%],remaining binding at 1 µM (PIK3CA(Q546K)) [%],remaining binding at 1 µM (AXL) [%],"% control (FLT3(ITD, D835V)) [%]",remaining binding at 1 µM (SNARK) [%],remaining binding at 1 µM (PCTK3) [%],remaining binding at 1 µM (RET(V804M)) [%],remaining binding at 1 µM (TAOK1) [%],remaining binding at 1 µM (LCK) [%],remaining binding at 1 µM (AURKA) [%],also measured
"CCNc1cc(Nc2ccc(C(=O)N3CCC(N4CCOCC4)CC3)cc2OC)nc2[nH]cc(C#N)c12 [Example 18, 4-(ethylamino)-6-((2-methoxy-4-(4-morpholinopiperidine-1-carbonyl)phenyl)amino)-1H-pyrrolo[2,3-b]pyridine-3-carbonitrile]",73,67,87,79,98,73,93,41,62,100,94,100,98,100,57,86,99,82,96,94,remaining binding at 1 µM (PAK3): 93%; remaining binding at 1 µM (PIK3CA(H1047Y)): 71%; remaining binding at 1 µM (CDK2): 100%; remaining binding at 1 µM (PIK3CD): 100%; remaining binding at 1 µM (TAOK3): 94%; remaining binding at 1 µM (ARK5): 94%; remaining binding at 1 µM (DRAK1): 56%; remaining binding at 1 µM (ACVRL1): 80%; remaining binding at 1 µM (AMPK-alpha1): 92%; remaining binding at 1 µM (BMPR1A): 74%; remaining binding at 1 µM (MEK2): 26%; remaining binding at 1 µM (MRCKA): 100%; remaining binding at 1 µM (ERBB3): 97%; remaining binding at 1 µM (KIT(D816V)): 82%; remaining binding at 1 µM (MYLK2): 72%; remaining binding at 1 µM (FLT1): 46%; remaining binding at 1 µM (EPHA6): 98%; remaining binding at 1 µM (MRCKB): 92%; remaining binding at 1 µM (DCAMKL1): 85%
"CCNc1cc(Nc2ccc(C(=O)N3CCC(N4CCOCC4)CC3)cc2OC)nc2[nH]cc(C(F)(F)F)c12 [Example 57, (4-((4-(ethylamino)-3-(trifluoromethyl)-1H-pyrrolo[2,3-b]pyridin-6-yl)amino)-3-methoxyphenyl) (4-morpholinopiperidin-1-yl)methanone]",76,69,100,100,96,100,100,82,67,99,92,100,100,100,100,86,95,100,90,83,remaining binding at 1 µM (PAK3): 83%; remaining binding at 1 µM (PIK3CA(H1047Y)): 73%; remaining binding at 1 µM (CDK2): 100%; remaining binding at 1 µM (PIK3CD): 100%; remaining binding at 1 µM (TAOK3): 100%; remaining binding at 1 µM (ARK5): 94%; remaining binding at 1 µM (DRAK1): 67%; remaining binding at 1 µM (ACVRL1): 89%; remaining binding at 1 µM (AMPK-alpha1): 75%; remaining binding at 1 µM (BMPR1A): 80%; remaining binding at 1 µM (MEK2): 100%; remaining binding at 1 µM (MRCKA): 95%; remaining binding at 1 µM (ERBB3): 100%; remaining binding at 1 µM (KIT(D816V)): 83%; remaining binding at 1 µM (MYLK2): 85%; remaining binding at 1 µM (FLT1): 94%; remaining binding at 1 µM (EPHA6): 87%; remaining binding at 1 µM (MRCKB): 100%; remaining binding at 1 µM (DCAMKL1): 86%
